Experiments:
[1] = test system: Enterobacter aerogenes; assay: Log10 reduction of viable facultative anaerobic bacteria in high-TDS buffer after biocide contact; type: cell-based; settings: TDS 30,000 mg l^-1, pH 8 phosphate buffer, room temperature, versus control, ppm active per example, 8 = complete kill
Protocol: (§1) Aqueous systems inoculated with anaerobe and facultative anaerobe culture and having a total dissolved solids (TDS) concentration of 30,000 mg l^−1 were prepared and treated with treatment agents comprising: (a) a phosphonium compound and (b) a quaternary ammonium salt. The phosphonium compound (a) used was tri n-butyl n-tetradecyl phosphonium chloride (TTPC). The quaternary ammonium salt (b) used was 1-(3-chloroallyl)-3,5,7-triaza-1-azoniaadamantane chloride (CTAC).
(§2) A suspension of Desulfovibrio vulgaris plus Enterobacter aerogenes bacteria containing from 1×10^5 to 1×10^6 cells/mL was prepared in sterile pH 8 phosphate buffer containing sodium chloride to give the desired total dissolved solids (TDS) concentration. Aliquots of this suspension were dosed with the indicated concentrations of the compounds (a) and (b) with the concentrations being measured as ppm active by weight. The mixtures were allowed to stand at room temperature. At the designated contact times, each mixture was sampled to determine the total number of viable cells of both Desulfovibrio vulgaris and Enterobacter aerogenes by serial 10-fold dilution into API RP 38 media vials and anaerobic acid producing media vials, respectively. The vials were incubated at 37° C. for 72 hours. Results were recorded as log10 reduction in the viable count versus the control.
(§3) The efficacy of the treatment agents was evaluated by measuring the Log10 Reduction of the anaerobic bacterium Desulfovibrio vulgaris and the facultative anaerobic bacterium Enterobacter aerogenes after contact times of 1 hour, 4 hours, 24 hours and 48 hours as detailed in Table 1. For TTPC the stated ppm value relates to the amount of TTPC added (active). For the CTAC the stated ppm relates to the amount of CTAC added (active).

[2] = test system: Desulfovibrio vulgaris; assay: Log10 reduction of viable anaerobic bacteria in high-TDS buffer after biocide contact; type: cell-based; settings: TDS 30,000 mg l^-1, pH 8 phosphate buffer, room temperature, versus control, ppm active per example, 5 = complete kill
Protocol: as §1, §2, §3

CCCCCCCCCCCCCC[P+](CCCC)(CCCC)CCCC.[Cl-] [Example 1, tri n-butyl n-tetradecyl phosphonium chloride] was tested, and the “Log10 Reduction Facultative Anaerobes” value ([1]; contact time 1 hour) was 1 and the “Log10 Reduction Anaerobes” value ([2]; contact time 1 hour) was 2.
In the case of CCCCCCCCCCCCCC[P+](CCCC)(CCCC)CCCC.[Cl-] [Example 2, tri n-butyl n-tetradecyl phosphonium chloride], the “Log10 Reduction Facultative Anaerobes” value ([1]; contact time 1 hour) is reported as 3 and the “Log10 Reduction Anaerobes” value ([2]; contact time 1 hour) is reported as 3.
ClC=CC[N+]12CN3CN(CN(C3)C1)C2.[Cl-] [Example 4, 1-(3-chloroallyl)-3,5,7-triaza-1-azoniaadamantane chloride] was tested, and the “Log10 Reduction Facultative Anaerobes” value ([1]; contact time 1 hour) was 0 and the “Log10 Reduction Anaerobes” value ([2]; contact time 1 hour) was 0.
In the case of CCCCCCCCCCCCCC[P+](CCCC)(CCCC)CCCC.[Cl-] [Example 9, tri n-butyl n-tetradecyl phosphonium chloride], the “Log10 Reduction Facultative Anaerobes” value ([1]; contact time 4 hours) is reported as 2 and the “Log10 Reduction Anaerobes” value ([2]; contact time 4 hours) is reported as 5.
CCCCCCCCCCCCCC[P+](CCCC)(CCCC)CCCC.[Cl-] [Example 10, tri n-butyl n-tetradecyl phosphonium chloride] was tested, and the “Log10 Reduction Facultative Anaerobes” value ([1]; contact time 4 hours) was 8 and the “Log10 Reduction Anaerobes” value ([2]; contact time 4 hours) was 5.
In the case of ClC=CC[N+]12CN3CN(CN(C3)C1)C2.[Cl-] [Example 11, 1-(3-chloroallyl)-3,5,7-triaza-1-azoniaadamantane chloride], the “Log10 Reduction Facultative Anaerobes” value ([1]; contact time 4 hours) is reported as 0 and the “Log10 Reduction Anaerobes” value ([2]; contact time 4 hours) is reported as 0.
In the case of ClC=CC[N+]12CN3CN(CN(C3)C1)C2.[Cl-] [Example 12, 1-(3-chloroallyl)-3,5,7-triaza-1-azoniaadamantane chloride], the “Log10 Reduction Facultative Anaerobes” value ([1]; contact time 4 hours) is reported as 1 and the “Log10 Reduction Anaerobes” value ([2]; contact time 4 hours) is reported as 0.
With CCCCCCCCCCCCCC[P+](CCCC)(CCCC)CCCC.[Cl-] [Example 17, tri n-butyl n-tetradecyl phosphonium chloride] the “Log10 Reduction Facultative Anaerobes” value ([1]; contact time 24 hours) was 4 and the “Log10 Reduction Anaerobes” value ([2]; contact time 24 hours) was 5.
For CCCCCCCCCCCCCC[P+](CCCC)(CCCC)CCCC.[Cl-] [Example 18, tri n-butyl n-tetradecyl phosphonium chloride], the “Log10 Reduction Facultative Anaerobes” value ([1]; contact time 24 hours) was 7 and the “Log10 Reduction Anaerobes” value ([2]; contact time 24 hours) was 5.
For ClC=CC[N+]12CN3CN(CN(C3)C1)C2.[Cl-] [Example 19, 1-(3-chloroallyl)-3,5,7-triaza-1-azoniaadamantane chloride], the “Log10 Reduction Facultative Anaerobes” value ([1]; contact time 24 hours) was 0 and the “Log10 Reduction Anaerobes” value ([2]; contact time 24 hours) was 1.
ClC=CC[N+]12CN3CN(CN(C3)C1)C2.[Cl-] [Example 20, 1-(3-chloroallyl)-3,5,7-triaza-1-azoniaadamantane chloride] was tested, and the “Log10 Reduction Facultative Anaerobes” value ([1]; contact time 24 hours) was 2 and the “Log10 Reduction Anaerobes” value ([2]; contact time 24 hours) was 3.
CCCCCCCCCCCCCC[P+](CCCC)(CCCC)CCCC.[Cl-] [Example 25, tri n-butyl n-tetradecyl phosphonium chloride] was tested, and the “Log10 Reduction Facultative Anaerobes” value ([1]; contact time 48 hours) was 6 and the “Log10 Reduction Anaerobes” value ([2]; contact time 48 hours) was 5.
In the case of ClC=CC[N+]12CN3CN(CN(C3)C1)C2.[Cl-] [Example 27, 1-(3-chloroallyl)-3,5,7-triaza-1-azoniaadamantane chloride], the “Log10 Reduction Facultative Anaerobes” value ([1]; contact time 48 hours) is reported as 2 and the “Log10 Reduction Anaerobes” value ([2]; contact time 48 hours) is reported as 5.
ClC=CC[N+]12CN3CN(CN(C3)C1)C2.[Cl-] [Example 28, 1-(3-chloroallyl)-3,5,7-triaza-1-azoniaadamantane chloride] was tested, and the “Log10 Reduction Facultative Anaerobes” value ([1]; contact time 48 hours) was 3 and the “Log10 Reduction Anaerobes” value ([2]; contact time 48 hours) was 5.

— patent US20170094976A1, “TREATMENT OF WATER” (BWA WATER ADDITIVES UK LIMITED, priority 2015, published 2017)
